Measured values as given in patent US9115127B2 (AMGEN INC., priority 2010, dated 2015).
Structures can show the parent of a compound that is named as a salt.

Target: T1, wild-type human ALK (cytoplasmic domain, amino acids 1058-1620, N-terminal GST fusion) (Homo sapiens, UniProt Q9UM73)
T1 construct: The cytoplasmic domain (amino acids 1058-1620) of wild-type human ALK; GST (N); made in house; host or cells: SF9 insect cells
Experiment: ALK Inhibition in Enzyme Assay (Lance TR-FRET kinase assay)
Format: biochemical
How it was run: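 TR-FRET read-out (Eu-W1024 PT66 anti-phosphotyrosine plus streptavidin-allophycocyanin, 320 nm excitation) quantified biotinylated peptide phosphorylation by the purified kinase. Reaction ran 90 minutes at room temperature before quenching with 20 mM EDTA in Tris pH 7.5 buffer with NaCl, BSA and Tween-20.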

T1 sequence (Q9UM73 1058-1620): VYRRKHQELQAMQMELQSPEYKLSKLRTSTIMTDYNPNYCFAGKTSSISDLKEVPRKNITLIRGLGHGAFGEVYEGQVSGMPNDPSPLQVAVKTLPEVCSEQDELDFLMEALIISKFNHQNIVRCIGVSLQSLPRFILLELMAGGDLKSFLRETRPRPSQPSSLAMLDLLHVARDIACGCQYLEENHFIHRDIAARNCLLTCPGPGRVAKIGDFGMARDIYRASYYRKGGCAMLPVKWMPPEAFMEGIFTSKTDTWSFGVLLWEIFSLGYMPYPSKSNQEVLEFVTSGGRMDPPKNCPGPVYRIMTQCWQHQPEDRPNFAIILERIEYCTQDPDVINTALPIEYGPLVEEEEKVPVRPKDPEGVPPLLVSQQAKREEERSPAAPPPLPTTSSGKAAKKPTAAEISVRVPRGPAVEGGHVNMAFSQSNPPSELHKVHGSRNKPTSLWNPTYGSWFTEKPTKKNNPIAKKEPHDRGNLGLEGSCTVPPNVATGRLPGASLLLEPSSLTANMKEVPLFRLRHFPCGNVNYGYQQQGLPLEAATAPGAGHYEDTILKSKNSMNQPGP

Row | SMILES | IC50 [nM]
1 | CC(C)(O)C1CCN(Cc2ccc3[nH]/c(=N\C(=O)c4ccc(F)cc4)n([C@H]4CC[C@@H](C(=O)N5[C@@H]6CC[C@H]5CNC6)CC4)c3c2)CC1 [Example 217, (E)-N-(1-(cis-4-(3,8-Fiazabicyclo[3.2.1]octane-8-carbonyl)cyclohexyl)-6-((4-(2-hydroxypropan-2-yl)piperidin-1-yl)methyl)-1H-benzo[d]imidazol-2(3H)-ylidene)-4-fluorobenzamide dihydrochloride] | < 50
2 | CC(C)NC(=O)[C@H]1CC[C@@H](n2/c(=N/C(=O)c3ccc(F)cc3)[nH]c3ccc(N4CCOCC4)cc32)CC1 [Example 218, (E)-4-Fluoro-N-(1-(cis-4-(isopropylcarbamoyl)cyclohexyl)-6-morpholino-1H-benzo[d]imidazol-2(3H)-ylidene)benzamide] | < 50
3 | CC(C)NC(=O)[C@H]1CC[C@@H](n2/c(=N/C(=O)c3ccc(F)cc3)[nH]c3ccc(Cl)cc32)CC1 [Example 219, (E)-N-(6-Chloro-1-(cis-4-(isopropylcarbamoyl)cyclohexyl)-1H-benzo[d]imidazol-2(3H)-ylidene)-4-fluorobenzamide] | < 50
4 | CC(C)NC(=O)[C@H]1CC[C@@H](n2/c(=N/C(=O)c3ccc(F)cc3)[nH]c3ccc(F)cc32)CC1 [Example 220, (E)-4-Fluoro-N-(6-fluoro-1-(cis-4-(isopropylcarbamoyl)cyclohexyl)-1H-benzo[d]imidazol-2(3H)-ylidene)benzamide] | < 50
5 | CC(C)NC(=O)[C@H]1CC[C@@H](n2/c(=N/C(=O)c3ccc(F)cc3)[nH]c3ccc(-n4cncn4)cc32)CC1 [Example 221, (E)-4-Fluoro-N-(1-(cis-4-(isopropylcarbamoyl)cyclohexyl)-6-(1H-1,2,4-triazol-1-yl)-1H-benzo[d]imidazol-2(3H)-ylidene)benzamide] | < 50
6 | CC(C)NC(=O)[C@H]1CC[C@@H](n2/c(=N/C(=O)c3ccc(F)cc3)[nH]c3cnc(N4CCOCC4)cc32)CC1 [Example 222, (E)-4-Fluoro-N-(1-(cis-4-(isopropylcarbamoyl)cyclohexyl)-6-morpholino-1H-imidazo[4,5-c]pyridin-2(3H)-ylidene)benzamide] | < 50
7 | CC(C)NC(=O)[C@H]1CC[C@@H](n2/c(=N/C(=O)c3ccc(F)cc3)[nH]c3cnc(N4CCS(=O)(=O)CC4)cc32)CC1 [Example 223, N-((2E)-6-(1,1-Dioxido-4-thiomorpholinyl)-1-(cis-4-((1-methylethyl)carbamoyl)cyclohexyl)-1,3-dihydro-2H-imidazo[4,5-c]pyridin-2-ylidene)-4-fluorobenzamide] | < 50
8 | CC(C)NC(=O)[C@H]1CC[C@@H](n2/c(=N/C(=O)c3ccc(F)cc3)[nH]c3cnc(N4CCN(S(C)(=O)=O)CC4)cc32)CC1 [Example 224, (E)-4-Fluoro-N-(1-(cis-4-(isopropylcarbamoyl)cyclohexyl)-6-(4-(methylsulfonyl)-piperazin-1-yl)-1H-imidazo[4,5-c]pyridin-2(3H)-ylidene)benzamide] | < 50
9 | CC(C)NC(=O)[C@H]1CC[C@@H](n2/c(=N/C(=O)c3ccc(F)cc3)[nH]c3cnc(N4CCN(C)CC4)cc32)CC1 [Example 225, (E)-4-Fluoro-N-(1-(cis-4-(isopropylcarbamoyl)cyclohexyl)-6-(4-methylpiperazin-1-yl)-1H-imidazo[4,5-c]pyridin-2(3H)-ylidene)benzamide] | < 50
10 | CC(C)NC(=O)[C@H]1CC[C@@H](n2/c(=N/C(=O)c3ccc(F)cc3)[nH]c3cnc(NCC(C)(C)O)cc32)CC1 [Example 226, (E)-4-Fluoro-N-(6-(2-hydroxy-2-methylpropylamino)-1-(cis-4-(isopropylcarbamoyl)cyclohexyl)-1H-imidazo[4,5-c]pyridin-2(3H)-ylidene)benzamide] | < 50
11 | CC(C)C(=O)N[C@H]1CC[C@@H](n2/c(=N/C(=O)c3ccc(F)cc3)[nH]c3ccc(CN4CCC(C(C)(C)O)CC4)cc32)CC1 [Example 227, (E)-4-Fluoro-N-(6-((4-(2-hydroxypropan-2-yl)piperidin-1-yl)methyl)-1-(cis-4-isobutyramidocyclohexyl)-1H-benzo[d]imidazol-2(3H)-ylidene)benzamide] | 50 to 100
12 | CC(C)C(=O)N[C@H]1CC[C@@H](n2/c(=N/C(=O)c3cccc(F)c3)[nH]c3ccc(CN4CCC(C(C)(C)O)CC4)cc32)CC1 [Example 228, (E)-3-Fluoro-N-(6-((4-(2-hydroxypropan-2-yl)piperidin-1-yl)methyl)-1-(cis-4-isobutyramidocyclohexyl)-1H-benzo[d]imidazol-2(3H)-ylidene)benzamide] | 100 to 1000
13 | CC(=O)N[C@H]1CC[C@H](n2/c(=N/C(=O)c3ccc(F)cc3)[nH]c3ccc(CN4CCC(C(C)(C)O)CC4)cc32)CC1 [Example 229, (E)-N-(1-(trans-4-Acetamidocyclohexyl)-6-((4-(2-hydroxypropan-2-yl)piperidin-1-yl)methyl)-1H-benzo[d]imidazol-2(3H)-ylidene)-4-fluorobenzamide] | 50 to 100
14 | CC(C)NC(=O)[C@H]1CC[C@@H](n2/c(=N/C(=O)c3ccc(F)cc3)[nH]c3ccc(CN4CCn5c(nnc5C(C)(C)O)C4)cc32)CC1 [Example 230, (E)-4-Fluoro-N-(6-((3-(2-hydroxypropan-2-yl)-5,6-dihydro-[1,2,4]-triazolo[4,3-a]pyrazin-7(8H)-yl)methyl)-1-(cis-4-(isopropylcarbamoyl)cyclohexyl)-1H-benzo[d]imidazol-2(3H)-ylidene)benzamide] | < 50
15 | CC(C)(O)C1CCN(Cc2ccc3[nH]/c(=N\C(=O)c4cccc(F)c4)n([C@H]4CC[C@@H](C(N)=O)CC4)c3c2)CC1 [Example 231] | < 50
16 | C=CCNS(=O)(=O)c1cccc(C(=O)/N=c2\[nH]c3ccc(CN4CCC(C(C)(C)O)CC4)cc3n2[C@H]2CC[C@@H](C(N)=O)CC2)c1 [Example 232, (E)-3-(N-Allylsulfamoyl)-N-(1-(cis-4-carbamoylcyclohexyl)-6-((4-(2-hydroxypropan-2-yl)piperidin-1-yl)methyl)-1H-benzo[d]imidazol-2(3H)-ylidene)benzamide] | < 50
17 | CC(C)(O)C1CCN(Cc2ccc3[nH]/c(=N\C(=O)c4ccc(F)cc4)n([C@H]4CC[C@H](C(N)=O)CC4)c3c2)CC1 [Example 233, (E)-N-(1-(trans-4-Carbamoylcyclohexyl)-6-((4-(2-hydroxypropan-2-yl)piperidin-1-yl)methyl)-1H-benzo[d]imidazol-2(3H)-ylidene)-4-fluorobenzamide] | 50 to 100
18 | CC(C)(O)C1CCN(Cc2ccc3[nH]/c(=N\C(=O)c4cccc(F)c4)n([C@H]4CC[C@H](C(N)=O)CC4)c3c2)CC1 [Example 234, (E)-N-(1-(trans-4-Carbamoylcyclohexyl)-6-((4-(2-hydroxypropan-2-yl)piperidin-1-yl)methyl)-1H-benzo[d]imidazol-2(3H)-ylidene)-3-fluorobenzamide] | 100 to 1000

Now from value to molecule:

Row | IC50 [nM] | SMILES
19 | < 50 | C=CCNS(=O)(=O)c1cccc(C(=O)/N=c2\[nH]c3ccc(CN4CCC(C(C)(C)O)CC4)cc3n2[C@H]2CC[C@H](C(N)=O)CC2)c1 [Example 235, (E)-3-(N-Allylsulfamoyl)-N-(1-(trans-4-carbamoylcyclohexyl)-6-((4-(2-hydroxypropan-2-yl)piperidin-1-yl)methyl)-1H-benzo[d]imidazol-2(3H)-ylidene)benzamide]
20 | < 50 | CC(C)NC(=O)[C@H]1CC[C@@H](n2/c(=N/C(=O)c3ccc(F)cc3)[nH]c3cnc(S(C)(=O)=O)cc32)CC1 [Example 236, (E)-4-Fluoro-N-(1-(cis-4-(isopropylcarbamoyl)cyclohexyl)-6-(methylsulfonyl)-1H-imidazo[4,5-c]pyridin-2(3H)-ylidene)benzamide]
21 | 100 to 1000 | COC(=O)Nc1nc2ccc(CN3CCCCC3)cc2n1[C@H]1CC[C@@H](C(=O)NC(C)C)CC1 [Example 237, Methyl 1-(cis-4-(isopropylcarbamoyl)cyclohexyl)-6-(piperidin-1-ylmethyl)-1H-benzo[d]imidazol-2-ylcarbamate]
22 | < 50 | CC(C)NC(=O)[C@H]1CC[C@@H](n2/c(=N/C(=O)c3ccc(F)cc3)[nH]c3ccc(S(C)(=O)=O)cc32)CC1 [Example 238, (E)-4-Fluoro-N-(1-(cis-4-(isopropylcarbamoyl)cyclohexyl)-6-(methylsulfonyl)-1H-benzo[d]imidazol-2(3H)-ylidene)benzamide]
23 | < 50 | CC(C)NC(=O)[C@H]1CC[C@@H](n2/c(=N/C(=O)c3ccc(F)cc3)[nH]c3ccc(N4CCS(=O)(=O)CC4)cc32)CC1 [Example 239, (E)-4-Fluoro-N-(1-(cis-4-(isopropylcarbamoyl)cyclohexyl)-6-(thiomorpholine 1,1-dioxide)-1H-benzo[d]imidazol-2(3H)-ylidene)benzamide]
24 | 1000 to 5000 | N#C[C@]1(c2ccccn2)C[C@@H](n2/c(=N/C(=O)c3ccc(F)cc3)[nH]c3cnc(OCCN4CCCCC4)cc32)C1 [Example 240, (E)-N-(1-(trans-3-Cyano-3-(pyridin-2-yl)cyclobutyl)-6-(2-(piperidin-1-yl)ethoxy)-1H-imidazo[4,5-c]pyridin-2(3H)-ylidene)-4-fluorobenzamide]
25 | 100 to 1000 | N#C[C@]1(c2ccccn2)C[C@H](n2/c(=N/C(=O)c3ccc(F)cc3)[nH]c3cnc(OCCN4CCCCC4)cc32)C1 [Example 241, (E)-N-(1-(cis-3-Cyano-3-(pyridin-2-yl)cyclobutyl)-6-(2-(piperidin-1-yl)ethoxy)-1H-imidazo[4,5-c]pyridin-2(3H)-ylidene)-4-fluorobenzamide]
26 | 100 to 1000 | CC(C)(O)C1CCN(Cc2ccc3[nH]/c(=N\C(=O)c4ccc(F)cc4)n([C@H]4CC[C@]5(CC4)NC(=O)NC5=O)c3c2)CC1 [Example 242, (E)-N-(1-((5S,8S)-2,4-Dioxo-1,3-diazaspiro[4.5]decan-8-yl)-6-((4-(2-hydroxypropan-2-yl)piperidin-1-yl)methyl)-1H-benzo[d]imidazol-2(3H)-ylidene)-4-fluorobenzamide]
27 | < 50 | CC(C)(O)C1CCN(Cc2ccc3[nH]/c(=N\C(=O)c4ccc(F)cc4)n([C@H]4CC[C@@H](C(=O)NC5CNC5)CC4)c3c2)CC1 [Example 243]
